Test results published in US20260297129A1, “PEPTIDES AS SELECTIVE IL-23 RECEPTOR INHIBITORS” (SANOFI, priority 2023, published 2026).
≈ marks a conversion by molar mass, not a printed value. Like-named read-outs stand apart in the source and are kept apart here. Numbered stars: 1 amine (or outer) side, 2 acyl side, 3 side chain; on linkers, the order of the positions; unused ones are H or OH. Bridge positions count the residues as written; N and C are the ends. Square brackets hold non-standard residues; d marks the D form. Peptide text beside a SMILES is read from it. * marks the point of attachment. Lys(Me,(CH2)4NMe(CH2)4CO) = CN(CCCCC(=O)[*:3])CCCCN(C)CCCC[C@H](N[*:1])C(=O)[*:2]; Trp(7-Me) = Cc1cccc2c(C[C@H](N)C(=O)O)c[nH]c12; Trp(1-Me) = Cn1cc(C[C@H](N)C(=O)O)c2ccccc21; 2Nal = N[C@@H](Cc1ccc2ccccc2c1)C(=O)O; 3Pal = N[C@@H](Cc1cccnc1)C(=O)O; Aun = NCCCCCCCCCCC(=O)O; Thp = NC1(C(=O)O)CCOCC1; Me2NCH2CH2 = CN(C)CC*; Aib = CC(C)(N)C(=O)O; Sar = CNCC(=O)O

Tests used:
[1] = Solubility of peptide compounds in buffer formulations (Table 5); assay type: physicochemical; settings: target 1 mg/ml
Method in brief: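 Peptide solids, dried from DMSO stock, were taken up at 1 mg/mL in 50 mM HCl pH 1.2, or 50 mM phosphate pH 6.5 or pH 7.4. After 2 h gentle agitation and filtration (0.45 μm), solubility was determined by UHPLC-UV peak area against a DMSO standard of known concentration.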

[2] = Chemical stability (relative purity loss) of peptide compounds in buffer formulations (Table 6); assay type: physicochemical; settings: 2° C. and 37° C.
Method in brief: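 Compounds at 0.5 mg/mL in 50 mM HCl pH 1.2, 50 mM phosphate pH 6.5 or pH 7.4, each with acetonitrile (3:1), stored 24 hours at 2° C and 37° C. Purity measured by UHPLC-UV before and after. Stability expressed as relative purity loss.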

[3] = Protease stability in simulated intestinal fluids (FaSSIF) (Table 7); assay type: in vitro ADME; settings: fassif with pancreatin, 37° C.; for remaining at 1 h, 1 µM: 60 min, read-out: Remaining percentage of peptide compound, FaSSIF 60 (min); for remaining at 2 h, 1 µM: 120 min, read-out: Remaining percentage of peptide compound, FaSSIF 120 (min); for remaining at 4 h, 1 µM: 240 min, read-out: Remaining percentage of peptide compound, FaSSIF 240 (min)
Method in brief: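 1 μM peptide incubated at 37° C in simulated fluid (pancreatin-SIF prepared from pancreatin in SIF concentrate). Samples quenched with acidified ethanol at 0, 60, 120 and 240 min and analysed by LC-MS/MS. Percentage remaining from peak area relative to T0 (100%).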

[4] = Protease stability in simulated gastric fluids (FaSSGF) (Table 7); assay type: in vitro ADME; settings: fassgf with pepsin, 60 min, 37° C., read-out: Remaining percentage of peptide compound, FaSSGF 60 (min)
Method in brief: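 Peptides at 1 μM final were incubated at 37 °C in simulated gastric fluid with pepsin (320 mg per 100 mL SGF concentrate). Samples were quenched with ethanol (0.1% HCOOH) at 0, 60, 120 and 240 min and analysed by LC-MS/MS. Percent remaining is the peak area relative to T0 (100%).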

[5] = tested on: IL-23 induced STAT3 signaling (IL-23 receptor) in HEK-Blue IL-23 cells; assay: Inhibition of IL-23 induced STAT3 signaling in HEK-Blue IL-23 cells, SEAP reporter (Table 9); assay type: cell-based; settings: human IL23 0.25 ng/ml, overnight, read-out: Inhibition of IL-23 induced pSTAT3 (IC50 nM)
Method in brief: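 HEK-Blue IL-23 reporter cells (10,000/well) pre-incubated 60 min at 37 °C with serially diluted peptides, then stimulated overnight with human IL-23 at 0.25 ng/ml final. SEAP in supernatant read by QUANTI-Blue, 45 min room temperature, OD 620–655 nm; dose-response curve fitting.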

[6] = Buffer pH 1.1 (head; method: 50 mM HCl pH 1.2), 2 h agitation, read-out: Solubility, Buffer pH 1.1
[7] = aqueous buffer, 50 mM phosphate buffer pH 6.5, 2 h agitation, read-out: Solubility, Buffer pH 6.5
[8] = aqueous buffer, 50 mM phosphate buffer pH 7.4, 2 h agitation, read-out: Solubility, Buffer pH 7.4
[9] = 50 mM phosphate buffer pH 6.5 + acetonitrile (3:1), read-out: Chemical stability (relative purity loss), Buffer pH 6.5
[10] = 50 mM phosphate buffer pH 7.4 + acetonitrile (3:1), read-out: Chemical stability (relative purity loss), Buffer pH 7.4
[11] = 50 mm hcl + acetonitrile, Buffer pH 1.1 (head; method: 50 mM HCl pH 1.2 + acetonitrile 3:1), read-out: Chemical stability (relative purity loss), Buffer pH 1.1

Row | SMILES | solubility at 2 h [1, 6] [µg/mL] | solubility at 2 h [1, 7] [µg/mL] | solubility at 2 h [1, 8] [µg/mL] | degraded at 24 h [2, 9] [%] | degraded at 24 h [2, 10] [%] | degraded at 24 h [2, 11] [%] | remaining at 1 h, 1 µM [3] [%] | remaining at 2 h, 1 µM [3] [%] | remaining at 4 h, 1 µM [3] [%] | remaining at 1 h, 1 µM [4] [%] | IC50 [5] [nM]
1 | CC(=O)NCCCC[C@@H]1NC(=O)[C@H](Cc2c[nH]c3c(C)cccc23)NC(=O)CCCCN(C)CCCCN(C)CCCC[C@@H](C(=O)NCC(=O)N[C@@H](Cc2cccnc2)C(=O)N(C)CC(N)=O)NC(=O)C(C)(C)NC(=O)[C@H](Cc2ccc3ccccc3c2)NC(=O)[C@H](Cc2ccc(OCCN(C)C)cc2)NC(=O)C2(CCOCC2)NC1=O [compound 29] ([Trp(7-Me)]K(Ac)[Thp]Y(Me2NCH2CH2)[2Nal][Aib][Lys(Me,(CH2)4NMe(CH2)4CO)]G[3Pal][Sar]-NH2; lactam N-7) | ≥ 970 | 850 (≈ 526 µM) | 830 (≈ 513 µM) | 0 | 0 | 3 | 96 | 95 | 90 | 99 | 2.75
2 | CC(=O)NCCCC[C@@H]1NC(=O)[C@H](Cc2c[nH]c3c(C)cccc23)NC(=O)CCCCN(C)CCCCN(C)CCCC[C@@H](C(=O)N[C@@H](CC(N)=O)C(=O)N[C@@H](Cc2cccnc2)C(=O)N(C)CC(N)=O)NC(=O)C(C)(C)NC(=O)[C@H](Cc2ccc3ccccc3c2)NC(=O)[C@H](Cc2ccc(OCCN(C)C)cc2)NC(=O)C2(CCOCC2)NC1=O [compound 32] ([Trp(7-Me)]K(Ac)[Thp]Y(Me2NCH2CH2)[2Nal][Aib][Lys(Me,(CH2)4NMe(CH2)4CO)]N[3Pal][Sar]-NH2; lactam N-7) | ≥ 950 | ≥ 1080 | ≥ 1120 | 0 | 0.5 | 3.6 | 96 | 93 | 84 | 97 | 0.53
3 | CN(C)CCOc1ccc(C[C@@H]2NC(=O)C3(CCOCC3)NC(=O)[C@H](CCC(N)=O)NC(=O)[C@H](Cc3cn(C)c4ccccc34)NC(=O)CCCCN(C)CCCCN(C)CCCC[C@@H](C(=O)N[C@@H](CO)C(=O)N[C@@H](Cc3cccnc3)C(=O)N(C)CC(N)=O)NC(=O)C(C)(C)NC(=O)[C@H](Cc3ccc4ccccc4c3)NC2=O)cc1 [compound 40] ([Trp(1-Me)]Q[Thp]Y(Me2NCH2CH2)[2Nal][Aib][Lys(Me,(CH2)4NMe(CH2)4CO)]S[3Pal][Sar]-NH2; lactam N-7) | ≥ 980 | ≥ 1070 | ≥ 1060 | 0 | 0 | 5.7 | 97 | 93 | 92 | 100 | 2.26
4 | CC(=O)NCCCC[C@@H]1NC(=O)[C@H](Cc2c[nH]c3c(C)cccc23)NC(=O)CCCCCCCCCCNC(=O)CC[C@@H](C(=O)N[C@@H](CC(N)=O)C(=O)N[C@@H](Cc2cccnc2)C(=O)N(C)CC(N)=O)NC(=O)C2(CCOCC2)NC(=O)[C@H](Cc2ccc3ccccc3c2)NC(=O)[C@H](Cc2ccc(OCCN(C)C)cc2)NC(=O)C2(CCOCC2)NC1=O [compound 50] ([Aun][Trp(7-Me)]K(Ac)[Thp]Y(Me2NCH2CH2)[2Nal][Thp]EN[3Pal][Sar]-NH2; lactam N-8) | ≥ 1180 | 340 (≈ 200 µM) | 130 (≈ 76.4 µM) | 0 | 0.1 | 3.4 | 91 | 92 | 91 | 84 | 0.19
